Patent publication US3983105A, “Penicillins” (Bayer Aktiengesellschaft, priority 1971, dated 1976)

Experiments:
Assay type in all cases: cell-based
Escherichia coli = assay: MIC, test tube serial dilution, Escherichia coli; conditions: Table 3
Proteus morganii = assay: MIC, test tube serial dilution, Proteus morganii; conditions: Table 3; strain 932
Pseudomonas aeruginosa = assay: MIC, test tube serial dilution, Pseudomonas aeruginosa; conditions: Table 3
Staphylococcus aureus = assay: MIC, test tube serial dilution, Staphylococcus aureus; conditions: Table 3
Proteus vulgaris = assay: MIC, test tube serial dilution, Proteus vulgaris; conditions: Table 3; strain 1017
Streptococcus faecalis = assay: MIC, test tube serial dilution, Streptococcus faecalis
Klebsiella-Aerobacter = assay: MIC, test tube serial dilution, Klebsiella-Aerobacter; conditions: Table 3

| SMILES | MIC (Escherichia coli; strain 14) | MIC (Escherichia coli; strain 183/58) | MIC (Escherichia coli; strain A 261) | MIC (Escherichia coli; strain C 165) | MIC (Proteus morganii) | MIC (Pseudomonas aeruginosa; strain F 41) | MIC (Pseudomonas aeruginosa; strain Walter) | MIC (Staphylococcus aureus; strain 133) | MIC (Staphylococcus aureus; strain 1756E) | MIC (Proteus vulgaris) | MIC (Streptococcus faecalis; Table 3, ATCC 9790) | MIC (Klebsiella-Aerobacter; strain 63) | MIC (Klebsiella-Aerobacter; strain K 10) | MIC (Streptococcus faecalis; unit assumed) |
| --- | --- | --- | --- | --- | --- | --- | --- | --- | --- | --- | --- | --- | --- | --- |
| CCS(=O)(=O)N1CCN(C(=O)N[C@@H](C(=O)N[C@@H]2C(=O)N3[C@@H]2SC(C)(C)[C@@H]3C(=O)O)c2ccccc2)C1=O [Penicillin No. 11 (Table 3), Sodium D(-)-α-[(3-ethylsulphonyl-imidazolidin-2-on-1-yl)-carbonylamino]-benzylpenicillin] | < 1 U/ml | 2 U/ml | 512 U/ml | 4 U/ml | 16 U/ml | 64 U/ml | 64 U/ml | 2 U/ml | 128 U/ml | 4 U/ml | 64 U/ml | 16 U/ml | 16 U/ml |  |
| CCS(=O)(=O)N1CCN(C(=O)NC(C(=O)N[C@@H]2C(=O)N3[C@@H]2SC(C)(C)[C@@H]3C(=O)O)c2ccc(Cl)cc2)C1=O (stereo partly drawn) [Penicillin No. 13 (Table 3), Sodium α-[(3-ethylsulphonyl-imidazolidin-2-on-1-yl)-carbonylamino]-p-chlorobenzylpenicillin] | 4 U/ml | 4 U/ml | > 256 U/ml | 8 U/ml | 128 U/ml | 128 U/ml | 128 U/ml | 4 U/ml | 256 U/ml | 16 U/ml | 128 U/ml | 64 U/ml | 32 U/ml |  |
| COC(=O)N1CCN(C(=O)NC(C(=O)N[C@@H]2C(=O)N3[C@@H]2SC(C)(C)[C@@H]3C(=O)O)c2ccc(Cl)cc2)C1=O (stereo partly drawn) [Penicillin No. 19 (Table 3), Sodium D,L-α-[(3-methoxycarbonyl-imidazolidin-2-on-1-yl)-carbonylamino]-4-chlorobenzylpenicillin] | 4 U/ml | 16 U/ml | > 256 U/ml | 8 U/ml | 4 U/ml | 64 U/ml | 64 U/ml |  | 128 U/ml | 32 U/ml |  | 4 U/ml | 32 U/ml | 32 µg/mL |
| COC(=O)N1CCN(C(=O)NC(C(=O)N[C@@H]2C(=O)N3[C@@H]2SC(C)(C)[C@@H]3C(=O)O)c2cccs2)C1=O (stereo partly drawn) [Penicillin No. 20 (Table 3), Sodium D,L-α-[(3-methoxycarbonyl-imidazolidin-2-on-1-yl)-carbonylamino]-α-thienyl(2)-methylpenicillin] | 4 U/ml | 8 U/ml | > 256 U/ml | 8 U/ml | 32 U/ml | 64 U/ml | 32 U/ml | < 1 U/ml | 64 U/ml | 8 U/ml | 16 U/ml | 32 U/ml | 32 U/ml |  |
